Like-named read-outs stand apart in the source and are kept apart here. Positions of bridges follow the written chain, without caps; N, C: chain ends. Non-standard residues stand in square brackets, D forms with d. Residues, ends and D or L forms follow the SMILES beside them. Trp(1-Me) = Cn1cc(C[C@H](N)C(=O)O)c2ccccc21; 1Nal = N[C@@H](Cc1cccc2ccccc12)C(=O)O; Sar = CNCC(=O)O Where only a bound is given, the exact number is not on record here.

As a reminder, the IC50 is the concentration that gives 50% inhibition.

Data set [1] can be described thus: Solubility test at 10 mg/mL (visual inspection and light scattering). The format is physicochemical. The conditions noted are these: for Solubility, Condition 1 Acetate pH 4: 10 mg/mL compound in 100 mM acetate pH 4; for Solubility, Condition 2 Acetate pH 5: 10 mg/mL compound in 100 mM acetate pH 5; for Solubility, Condition 3 Phosphate pH 6: 10 mg/mL compound in 100 mM phosphate pH 6; for Solubility, Condition 4 Phosphate pH 7: 10 mg/mL compound in 100 mM phosphate pH 7; for Solubility, Condition 5 Phosphate pH 7.5: 10 mg/mL compound in 100 mM phosphate pH 7.5. The protocol:
The solubility of compounds was assessed by measuring light scattering over a pH interval from pH 4 to pH 7.5.
Compounds were dissolved in a stock solution of 20 mg/mL in H2O at pH 2.5 or pH 10.
These stock solutions were diluted 1:1 with 200 mM buffered solution to reach a final solution of 10 mg/mL compound in 100 mM buffer. The 5 investigated conditions were (1) acetate pH 4.0, (2) acetate pH 5.0, (3) phosphate pH 6.0, (4) phosphate pH 7 and (5) phosphate pH 7.5.
Visual inspection included manually checking the 96 well plate for wells that are clear or non-clear. In addition to this a picture of the 96 well plate is taken.
Absorbance was measured at four wavelengths: 280 nm, 325 nm, 340 nm and 360 nm in an UV transparent 96 well microplate in a SpectraMax 190 microplate reader (Molecular Devices).
The criteria for this was a combination of visual inspection and light scattering not exceeding 0.1 AU, where values below 0.1 AU are good in visually clear samples. […]

The test system of data set [2] is classical complement pathway. Description: In vitro haemolysis assay (inhibition of classical complement pathway). The format is cell-based, human. A digest of the protocol: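 Serially diluted compound (9 points) was preincubated 15 min at room temperature with diluted human serum, titrated per batch to give 70-90% maximal haemolysis, in Tris/casein buffer pH 7.4 with Mg2+/Ca2+. Antibody-sensitized sheep erythrocytes were then added for 30 min at 37° C, and the reaction was stopped with EDTA. Haemolysis was read at A405, with IC50 from 4PL fit.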

[3] abbreviates: Table 3, human serum, sensitized sheep red blood cells, read-out: IC50[nM], in vitro analysis of inhibition of hemolysis.

On to `CC[C@H](C)[C@@H]1NC(=O)[C@@H](NC(=O)[C@H](Cc2ccccc2)NC(=O)[C@H](C)NC(=O)[C@H](CO)NC(=O)CNC(=O)[C@H](CCC(=O)O)NC(C)=O)CSSC[C@@H](C(=O)N[C@H](C(=O)N[C@@H](CCC(=O)O)C(N)=O)[C@@H](C)O)NC(=O)[C@H](CCCNC(=N)N)NC(=O)[C@H](Cc2c[nH]cn2)NC(=O)[C@H](CCC(=O)O)NC(=O)CNC(=O)[C@H](Cc2c[nH]c3ccccc23)NC(=O)[C@H](CC(=O)O)NC(=O)[C@H](CCC(N)=O)NC(=O)[C@H](Cc2cccc3ccccc23)NC1=O` [Compound 56] (Ac-EGSAFCI[1Nal]QDWGEHRCTE-NH2; disulfide 6-16), for which, in data set [1], the “Solubility, Condition 1 Acetate pH 4” value is “− (denotes lack of solubility at the given condition, as UV absorbance at 340 nm exceeds 0.1 AU and/or it is visibly turbid or contains particles.)”; the “Solubility, Condition 2 Acetate pH 5” value was “− (denotes lack of solubility at the given condition, as UV absorbance at 340 nm exceeds 0.1 AU and/or it is visibly turbid or contains particles.)”; the “Solubility, Condition 3 Phosphate pH 6” value is “+ (denotes solubility at the given condition, as determined by UV absorbance being less than 0.1 AU at 340 nm and the sample being clear when manually inspected.)”; the “Solubility, Condition 4 Phosphate pH 7” value was “+ (denotes solubility at the given condition, as determined by UV absorbance being less than 0.1 AU at 340 nm and the sample being clear when manually inspected.)”. The “Solubility, Condition 5 Phosphate pH 7.5” value in data set [1] was “+ (denotes solubility at the given condition, as determined by UV absorbance being less than 0.1 AU at 340 nm and the sample being clear when manually inspected.)”. In addition, the IC50 in data set [2] (setting [3]) was less than 100 nM.
For `CC[C@H](C)[C@H](NC(C)=O)C(=O)N[C@H]1CSSC[C@@H](C(=O)N[C@H](C(=O)NCC(=O)N[C@@H](C)C(=O)N[C@@H](CCC(=O)O)C(=O)N[C@@H](CO)C(N)=O)[C@@H](C)O)NC(=O)[C@H](CCCNC(=N)N)NC(=O)[C@H](Cc2c[nH]cn2)NC(=O)[C@H](CCC(=O)O)NC(=O)CNC(=O)[C@H](Cc2c[nH]c3ccccc23)NC(=O)[C@H](CC(=O)O)NC(=O)[C@H](CCC(N)=O)NC(=O)[C@H](Cc2cn(C)c3ccccc23)NC(=O)[C@H]([C@@H](C)CC)NC1=O` [Compound 51] (Ac-ICI[Trp(1-Me)]QDWGEHRCTGAES-NH2; disulfide 2-12), in data set [1], the “Solubility, Condition 1 Acetate pH 4” value is “− (denotes lack of solubility at the given condition, as UV absorbance at 340 nm exceeds 0.1 AU and/or it is visibly turbid or contains particles.)”; the “Solubility, Condition 2 Acetate pH 5” value is reported as “− (denotes lack of solubility at the given condition, as UV absorbance at 340 nm exceeds 0.1 AU and/or it is visibly turbid or contains particles.)”; the “Solubility, Condition 3 Phosphate pH 6” value is “+ (denotes solubility at the given condition, as determined by UV absorbance being less than 0.1 AU at 340 nm and the sample being clear when manually inspected.)”; the “Solubility, Condition 4 Phosphate pH 7” value is “+ (denotes solubility at the given condition, as determined by UV absorbance being less than 0.1 AU at 340 nm and the sample being clear when manually inspected.)”. For the same molecule, the “Solubility, Condition 5 Phosphate pH 7.5” value in data set [1] is “+ (denotes solubility at the given condition, as determined by UV absorbance being less than 0.1 AU at 340 nm and the sample being clear when manually inspected.)”. The IC50 in data set [2] (setting [3]) was less than 100 nM.
In the case of `CC[C@H](C)[C@@H]1NC(=O)[C@@H](NC(=O)[C@@H](NC(=O)[C@H](CCC(=O)O)NC(=O)[C@H](CO)NC(C)=O)[C@@H](C)CC)CSSC[C@@H](C(=O)N[C@H](C(=O)N[C@@H](CCC(=O)O)C(=O)N[C@@H](C)C(N)=O)[C@@H](C)O)NC(=O)[C@H](CCCNC(=N)N)NC(=O)[C@H](Cc2c[nH]cn2)NC(=O)[C@H](CCC(=O)O)NC(=O)CNC(=O)[C@H](Cc2c[nH]c3ccccc23)NC(=O)[C@H](CC(=O)O)NC(=O)[C@H](CCC(N)=O)NC(=O)[C@H](Cc2c[nH]c3ccccc23)NC1=O` [Compound 32] (Ac-SEICIWQDWGEHRCTEA-NH2; disulfide 4-14), in data set [1], the “Solubility, Condition 1 Acetate pH 4” value was “− (denotes lack of solubility at the given condition, as UV absorbance at 340 nm exceeds 0.1 AU and/or it is visibly turbid or contains particles.)”; the “Solubility, Condition 2 Acetate pH 5” value is “− (denotes lack of solubility at the given condition, as UV absorbance at 340 nm exceeds 0.1 AU and/or it is visibly turbid or contains particles.)”; the “Solubility, Condition 3 Phosphate pH 6” value is recorded as “− (denotes lack of solubility at the given condition, as UV absorbance at 340 nm exceeds 0.1 AU and/or it is visibly turbid or contains particles.)”; the “Solubility, Condition 4 Phosphate pH 7” value was “+ (denotes solubility at the given condition, as determined by UV absorbance being less than 0.1 AU at 340 nm and the sample being clear when manually inspected.)”. For the same molecule, the “Solubility, Condition 5 Phosphate pH 7.5” value in data set [1] was “+ (denotes solubility at the given condition, as determined by UV absorbance being less than 0.1 AU at 340 nm and the sample being clear when manually inspected.)”. In addition, the IC50 in data set [2] (setting [3]) is less than 100 nM.
Turning to `CC[C@H](C)[C@H](NC(=O)[C@H](C)NC(=O)[C@H](CO)NC(=O)CNC(=O)[C@H](CCC(=O)O)NC(C)=O)C(=O)N[C@H]1CSSC[C@@H](C(=O)N(C)CC(=O)N[C@@H](CCC(=O)O)C(N)=O)NC(=O)[C@H](CCCNC(=N)N)NC(=O)[C@H](Cc2c[nH]cn2)NC(=O)[C@H](CCC(=O)O)NC(=O)CNC(=O)[C@H](Cc2c[nH]c3ccccc23)NC(=O)[C@H](CC(=O)O)NC(=O)[C@H](CCC(N)=O)NC(=O)[C@H](Cc2c[nH]c3ccccc23)NC(=O)[C@H]([C@@H](C)CC)NC1=O` [Compound 28] (Ac-EGSAICIWQDWGEHRC[Sar]E-NH2; disulfide 6-16), in data set [1], the “Solubility, Condition 1 Acetate pH 4” value is “+ (denotes solubility at the given condition, as determined by UV absorbance being less than 0.1 AU at 340 nm and the sample being clear when manually inspected.)”; the “Solubility, Condition 2 Acetate pH 5” value is “+ (denotes solubility at the given condition, as determined by UV absorbance being less than 0.1 AU at 340 nm and the sample being clear when manually inspected.)”; the “Solubility, Condition 3 Phosphate pH 6” value was “+ (denotes solubility at the given condition, as determined by UV absorbance being less than 0.1 AU at 340 nm and the sample being clear when manually inspected.)”; the “Solubility, Condition 4 Phosphate pH 7” value was “+ (denotes solubility at the given condition, as determined by UV absorbance being less than 0.1 AU at 340 nm and the sample being clear when manually inspected.)”. For the same molecule, the “Solubility, Condition 5 Phosphate pH 7.5” value in data set [1] was “+ (denotes solubility at the given condition, as determined by UV absorbance being less than 0.1 AU at 340 nm and the sample being clear when manually inspected.)”. The IC50 in data set [2] (setting [3]) is less than 100 nM. For the same molecule, the half-inhibitory concentration (IC50) in data set [2] (Table 4, valine 3 versus isoleucine 3 pairs, read-out: CP hemolysis IC50) was 88 nM.
For the molecule `CC[C@H](C)[C@H](NC(=O)[C@H](C)NC(=O)[C@H](CO)NC(=O)CNC(=O)[C@H](CCC(=O)O)NC(C)=O)C(=O)N[C@H]1CSSC[C@@H](C(=O)N(C)CC(=O)N[C@@H](CCC(=O)O)C(=O)NCC(=O)N[C@@H](CCC(=O)O)C(N)=O)NC(=O)[C@H](CCCNC(=N)N)NC(=O)[C@H](Cc2c[nH]cn2)NC(=O)[C@H](CCC(=O)O)NC(=O)CNC(=O)[C@H](Cc2c[nH]c3ccccc23)NC(=O)[C@H](CC(=O)O)NC(=O)[C@H](CCC(N)=O)NC(=O)[C@H](Cc2c[nH]c3ccccc23)NC(=O)[C@H]([C@@H](C)CC)NC1=O` [Compound 44] (Ac-EGSAICIWQDWGEHRC[Sar]EGE-NH2; disulfide 6-16), in data set [1], the “Solubility, Condition 1 Acetate pH 4” value is “− (denotes lack of solubility at the given condition, as UV absorbance at 340 nm exceeds 0.1 AU and/or it is visibly turbid or contains particles.)”; the “Solubility, Condition 2 Acetate pH 5” value was “− (denotes lack of solubility at the given condition, as UV absorbance at 340 nm exceeds 0.1 AU and/or it is visibly turbid or contains particles.)”; the “Solubility, Condition 3 Phosphate pH 6” value is “+ (denotes solubility at the given condition, as determined by UV absorbance being less than 0.1 AU at 340 nm and the sample being clear when manually inspected.)”; the “Solubility, Condition 4 Phosphate pH 7” value is “+ (denotes solubility at the given condition, as determined by UV absorbance being less than 0.1 AU at 340 nm and the sample being clear when manually inspected.)”. Also, in data set [1], the “Solubility, Condition 5 Phosphate pH 7.5” value is “+ (denotes solubility at the given condition, as determined by UV absorbance being less than 0.1 AU at 340 nm and the sample being clear when manually inspected.)”. Also, the IC50 in data set [2] (setting [3]) was less than 250 nM.

These data come from US20220306695A1, “COMPSTATIN ANALOGUES AND THEIR MEDICAL USES” (priority 2019, published 2022).
